In data set [1] the test system is Mus musculus. Put plainly: Immunosuppressive activity in MOG (35 to 55 residues)/pertussis toxin-induced experimental allergic encephalomyelitis C57BL/6J mouse model assessed as IFN-gamma production of CNS infiltrating CD4+ Th1 cells at 10 mg/kg, po qd by intracellular staining method. It counts as functional, organism-based.
The nature of data set [2]: Tmax in mouse at 10 mg/kg, po. The settings on record: in vivo. Type of data set: ADME, organism-based.
Data set [3] is described as follows: Metabolic stability in rat liver microsomes assessed as parent compound remaining at 1 uM preincubated for 5 mins followed by NADPH addition after 30 mins by LC-MS/MS analysis. The settings on record: read-out: Stability. It counts as ADME, Microsome. (Microsomes from liver hold many membrane-bound enzymes, among them those of drug oxidation.)
Data set [4] is described as follows: Half life in mouse at 3 mg/kg, iv. Type of data set: ADME, organism-based. The note with it: in vivo.
The target of data set [5] is Cytochrome P450 2C9 (Homo sapiens, UniProt P11712). Briefly: Inhibition of CYP2C9 in human liver microsomes using diclofenac as substrate preincubated for 5 mins followed by NADPH addition measured after 10 mins by LC-MS/MS analysis.
Sequence of Cytochrome P450 2C9 (P11712 whole entry): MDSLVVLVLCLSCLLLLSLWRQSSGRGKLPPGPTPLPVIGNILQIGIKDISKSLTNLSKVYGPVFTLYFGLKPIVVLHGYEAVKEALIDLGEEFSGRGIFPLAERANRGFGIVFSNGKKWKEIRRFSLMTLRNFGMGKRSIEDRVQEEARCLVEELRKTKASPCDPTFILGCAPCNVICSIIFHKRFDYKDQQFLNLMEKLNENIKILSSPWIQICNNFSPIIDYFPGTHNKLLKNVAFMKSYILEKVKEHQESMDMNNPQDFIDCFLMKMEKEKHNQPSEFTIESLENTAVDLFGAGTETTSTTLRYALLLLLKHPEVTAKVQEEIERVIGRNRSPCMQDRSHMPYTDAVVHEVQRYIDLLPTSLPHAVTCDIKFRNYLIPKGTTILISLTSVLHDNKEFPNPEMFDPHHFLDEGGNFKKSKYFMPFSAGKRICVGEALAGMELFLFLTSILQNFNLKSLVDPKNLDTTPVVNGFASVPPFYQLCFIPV
Data set [6] concerns the target T1, Cytochrome P450 1A2 (Homo sapiens, UniProt P05177).
T1 sequence (P05177 whole entry): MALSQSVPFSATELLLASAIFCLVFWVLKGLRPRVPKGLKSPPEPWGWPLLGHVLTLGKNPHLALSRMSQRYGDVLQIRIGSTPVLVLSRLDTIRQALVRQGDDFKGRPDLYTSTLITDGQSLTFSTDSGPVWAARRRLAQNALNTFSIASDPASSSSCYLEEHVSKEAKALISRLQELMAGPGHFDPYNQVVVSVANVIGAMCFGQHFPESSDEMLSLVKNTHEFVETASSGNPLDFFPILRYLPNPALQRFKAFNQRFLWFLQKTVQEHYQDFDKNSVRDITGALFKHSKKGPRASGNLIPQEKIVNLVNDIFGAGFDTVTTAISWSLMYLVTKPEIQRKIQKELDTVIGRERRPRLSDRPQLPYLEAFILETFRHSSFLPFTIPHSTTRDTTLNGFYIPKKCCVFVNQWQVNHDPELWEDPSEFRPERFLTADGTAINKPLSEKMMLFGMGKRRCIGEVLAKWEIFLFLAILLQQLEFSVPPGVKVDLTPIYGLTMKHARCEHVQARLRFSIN
Put plainly: Inhibition of CYP1A2 in human liver microsomes using phenacetin as substrate preincubated for 5 mins followed by NADPH addition measured after 10 mins by LC-MS/MS analysis.

Data set [7] in a line: Oral bioavailability in mouse at 10 mg/kg. The note with it: in vivo. Type of data set: ADME, organism-based.
Data set [8] addresses Cytochrome P450 3A4 (Homo sapiens, UniProt P08684). Briefly: Inhibition of CYP3A4 in human liver microsomes using testosterone as substrate preincubated for 5 mins followed by NADPH addition measured after 10 mins by LC-MS/MS analysis.
The species entered for data set [9] is Mus musculus. The note with it: C57BL/6J, at 10 mg/kg.
Description: Immunosuppressive activity in MOG (35 to 55 residues)/pertussis toxin-induced experimental allergic encephalomyelitis C57BL/6J mouse model assessed as reduction in IL-17 production of CNS infiltrating CD4+ Th17 cells at 10 mg/kg, po qd by intracellular staining method
The nature of data set [10]: AUC (0 to 24 hrs) in mouse at 10 mg/kg, po. The settings on record: in vivo, 24 h. Also noted: dose 10 mg/kg, time < 24 hr, route oral. Type of data set: ADME, organism-based.
Data set [11] can be described thus: Cmax in mouse at 10 mg/kg, po. Type of data set: ADME, organism-based. Also on record: dose 10 mg/kg, route oral. The note with it: in vivo.
A short description of data set [12]: Metabolic stability in mouse liver microsomes assessed as parent compound remaining at 1 uM preincubated for 5 mins followed by NADPH addition after 30 mins by LC-MS/MS analysis. Type of data set: ADME, Microsome. The settings on record: read-out: Stability.
The test system of data set [13] is Mus musculus. Briefly: Immunosuppressive activity in MOG (35 to 55 residues)/pertussis toxin-induced experimental allergic encephalomyelitis C57BL/6J mouse model assessed as decrease in ratio of Th17:Th1 at 10 mg/kg, po qd by intracellular staining method. Type of data set: functional, organism-based.
For data set [14], the target named is Cytochrome P450 2C19 (Homo sapiens, UniProt P33261). Put plainly: Inhibition of CYP2C19 in human liver microsomes using (S)-mephenytoin as substrate preincubated for 5 mins followed by NADPH addition measured after 40 mins by LC-MS/MS analysis.
Sequence of Cytochrome P450 2C19 (P33261 whole entry): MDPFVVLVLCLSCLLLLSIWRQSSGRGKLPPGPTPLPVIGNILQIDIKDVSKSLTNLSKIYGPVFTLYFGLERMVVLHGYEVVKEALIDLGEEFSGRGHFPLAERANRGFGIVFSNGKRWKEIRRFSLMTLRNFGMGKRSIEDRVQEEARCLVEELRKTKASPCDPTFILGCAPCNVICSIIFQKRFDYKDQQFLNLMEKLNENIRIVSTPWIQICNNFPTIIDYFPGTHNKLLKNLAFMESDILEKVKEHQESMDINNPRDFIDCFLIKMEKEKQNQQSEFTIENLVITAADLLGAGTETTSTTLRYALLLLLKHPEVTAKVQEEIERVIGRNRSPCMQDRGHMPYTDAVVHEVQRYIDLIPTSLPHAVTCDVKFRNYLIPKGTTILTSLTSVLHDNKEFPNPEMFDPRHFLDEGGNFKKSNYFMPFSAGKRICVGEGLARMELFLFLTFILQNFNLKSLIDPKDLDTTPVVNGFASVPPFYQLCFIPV
Data set [15] in a line: Volume of distribution at steady state in mouse at 3 mg/kg, iv. It counts as ADME, organism-based. The settings on record: in vivo, read-out: Vdss.
A short description of data set [16]: Metabolic stability in human liver microsomes assessed as parent compound remaining at 1 uM preincubated for 5 mins followed by NADPH addition after 30 mins by LC-MS/MS analysis. The note with it: read-out: Stability. Type of data set: ADME, Microsome.
The test system of data set [17] is Mus musculus. Briefly: Immunosuppressive activity in MOG (35 to 55 residues)/pertussis toxin-induced experimental allergic encephalomyelitis C57BL/6J mouse model assessed as reduction in disease severity score at 10 mg/kg, po qd measured at day 21 relative to dexamethasone. It counts as functional. The note with it: 504 h.

We go through one compound from ChEMBL document CHEMBL4346735, “Discovery and pharmacological evaluation of indole derivatives as potent and selective RORγt inverse agonist for multiple autoimmune conditions” (Bioorg Med Chem Lett, 2019).

The source made the active and inactive calls. The rule behind the calls is not given here.

Sequence of Cytochrome P450 3A4 (P08684 whole entry): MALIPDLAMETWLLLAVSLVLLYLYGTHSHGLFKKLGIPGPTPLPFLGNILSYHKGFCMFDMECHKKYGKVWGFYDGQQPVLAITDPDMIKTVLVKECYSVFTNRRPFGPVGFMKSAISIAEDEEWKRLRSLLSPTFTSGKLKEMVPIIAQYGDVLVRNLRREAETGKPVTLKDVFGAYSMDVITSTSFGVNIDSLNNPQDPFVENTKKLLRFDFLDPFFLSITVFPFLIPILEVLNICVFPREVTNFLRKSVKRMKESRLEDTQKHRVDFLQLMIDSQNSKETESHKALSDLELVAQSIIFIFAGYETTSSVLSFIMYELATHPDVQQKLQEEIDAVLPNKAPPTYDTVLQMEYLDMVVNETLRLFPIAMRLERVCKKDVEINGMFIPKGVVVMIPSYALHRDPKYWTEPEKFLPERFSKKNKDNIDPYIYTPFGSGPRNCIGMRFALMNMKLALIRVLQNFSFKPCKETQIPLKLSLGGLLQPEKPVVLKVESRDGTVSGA

What is called Tmax is the time at which the peak concentration occurs. A word on the half-life: it is the time in which the quantity being followed falls by half. Read a low half-life as rapid decline. Usually IC50 stands for the concentration at which inhibition is half-maximal. Lower therefore signals greater potency in that assay. What is called AUC is concentration integrated over time. High values mean more exposure, low ones less exposure. In general, Cmax refers to the highest concentration seen after dosing. In general, inhibition in vivo refers to the percentage by which the read-out fell short of the control. For the compound `CCS(=O)(=O)c1ccc(CC(=O)Nc2cc(Cl)c(-c3ccccc3OC(F)(F)F)c(Cl)c2)cc1`, the inhibition result in [1] was “inactive”. In addition, the Tmax in [2] came out at 2 h. Besides, the remaining at 0.5 h, 1 µM in [3] worked out at 65%; in data set [12], 70%; in [16] it was 100%. In addition, the half-life in data set [4] was 10.7 h. Moreover, the IC50 was 2.1 µM in data set [5], greater than 50 µM in data set [6], greater than 50 µM in data set [8] and 9.6 µM in data set [14]. This compound also had a F in data set [7] of 79%. Also, the inhibition result in data set [9] and in data set [13] was “Active” in each case. Besides, in [10], the AUC was 22.3 µM·h. The compound further came in with a Cmax in [11] of 3000 nM. In addition, in data set [15], the Vd came to 3.5 L/kg. Further, the inhibition in vivo at 10 mg/kg in data set [17] worked out at 24%.
